Results taken from patent publication US9695155B2, “Herbicidal substituted pyrimidinyloxy benzene compounds” (E. I. DU PONT DE NEMOURS AND COMPANY, priority 2013, dated 2017).

How the values were obtained:
[1] = test system: Italian ryegrass; assay: Test A postemergence; assay type: in vivo, Lolium multiflorum; details: for Plant response rating, Ryegrass, Italian: 0 to 100 scale, 0 no effect, 100 complete control
Outline: (§1)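 Injury scores run from 0, no effect, to 100, complete control, judged by eye against untreated plants roughly 10 days after treatment. Chemicals carried a surfactant in a non-phytotoxic solvent and went onto loam–sand soil preemergence or onto one- to two-leaf seedlings postemergence.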

[2] = test system: Italian ryegrass; assay: Test A preemergence; assay type: in vivo, Lolium multiflorum; details: for Ryegrass, Italian plant response rating: 1000 g ai/ha, 0 to 100 scale, 0 no effect, 100 complete control, approx. 10 days; for Plant response rating, Ryegrass, Italian: 0 to 100 scale where 0 is no effect and 100 is complete control
Outline: as §1

[3] = test system: chickweed; assay: Test C postemergence; assay type: in vivo, Stellaria media
Outline: (§2)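 Rated visually on 0–100 (100 = complete control) after 13–15 days under glass. Treatments went onto freshly seeded loam/sand soil or onto emerged plants at the 1- to 4-leaf stage, using a surfactant-containing solvent formulation.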

[4] = test system: giant foxtail; assay: Test A postemergence; assay type: in vivo, Setaria faberii
Outline: as §1

[5] = test system: velvetleaf; assay: Test C postemergence; assay type: in vivo, Abutilon theophrasti; details: for Velvetleaf plant response rating: 31 g ai/ha
Outline: as §2

[6] = test system: corn; assay: Test A postemergence; assay type: in vivo, Zea mays
Outline: as §1

[7] = test system: pigweed; assay: Test C postemergence; assay type: in vivo, Amaranthus retroflexus; details: for Pigweed plant response rating: 31 g ai/ha
Outline: as §2

[8] = test system: blackgrass; assay: Test A postemergence; assay type: in vivo, Alopecurus myosuroides; details: for Plant response rating, Blackgrass: 0 to 100 scale, 0 no effect, 100 complete control
Outline: as §1

[9] = test system: kochia; assay: Test C postemergence; assay type: in vivo, Kochia scoparia
Outline: as §2

[10] = test system: Italian ryegrass; assay: Test C postemergence; assay type: in vivo, Lolium multiflorum; details: for Ryegrass, Italian plant response rating: 31 g ai/ha
Outline: as §2

[11] = test system: galium; assay: Test A postemergence; assay type: in vivo, Galium aparine; details: for Plant response rating, Galium: 0 to 100 scale, 0 no effect, 100 complete control
Outline: as §1

[12] = test system: ragweed; assay: Test A preemergence; assay type: in vivo, Ambrosia elatior; details: for Ragweed plant response rating: 1000 g ai/ha, 0 to 100 scale, 0 no effect, 100 complete control, approx. 10 days; for Plant response rating, Ragweed: 0 to 100 scale where 0 is no effect and 100 is complete control
Outline: as §1

[13] = postemergence, visual rating, scale 0 to 100 (0 no effect, 100 complete control), 13 to 15 days
[14] = 31 g ai/ha, visual, approximately 10 days
[15] = 16 g ai/ha, postemergence, 0 is no effect, 100 is complete control
[16] = 31 g ai/ha, postemergence, visual rating, scale 0 to 100 (0 no effect, 100 complete control), 13 to 15 days
[17] = 125 g ai/ha, postemergence, visual rating, scale 0 to 100 (0 no effect, 100 complete control)
[18] = Postemergence, 62 g ai/ha, scale 0 to 100 (0 no effect, 100 complete control), 13 to 15 days
[19] = 31 g ai/ha, 0 to 100 scale, 0 no effect, 100 complete control
[20] = 125 g ai/ha, 0 to 100 scale, 0 no effect, 100 complete control
[21] = Postemergence, 62 g ai/ha, scale 0 to 100 (0 no effect, 100 complete control)
[22] = 1000 g ai/ha, 0 to 100 scale, 0 no effect, 100 complete control
[23] = 125 g ai/ha, 0 to 100 scale where 0 is no effect and 100 is complete control
[24] = 8 g ai/ha, postemergence, 0 is no effect, 100 is complete control

Clc1cnc(Oc2ccccc2-n2cc(C3CC3)nn2)nc1 [Compound 160, 5-chloro-2-[2-(4-cyclopropyl-1H-1,2,3-triazol-1-yl)phenoxy]pyrimidine]
Plant response rating, Ryegrass, Italian ([1]; 1000 g ai/ha): 90
Ryegrass, Italian plant response rating [2]: 90
pest or weed control at 16 g/ha ([3]; Stellaria media, post-emergence, 16 g ai/ha, postemergence, 0 is no effect, 100 is complete control, read-out: Plant response rating (0 to 100), Chickweed): 50%
pest or weed control at 31 g/ha ([3]; Stellaria media, post-emergence, 31 g ai/ha, postemergence, visual rating, scale 0 to 100 (0 no effect, 100 complete control), 13 to 15 days, read-out: Chickweed plant response rating): 55%
pest or weed control at 125 g/ha ([3]; Stellaria media, post-emergence, 125 g ai/ha, postemergence, visual rating, scale 0 to 100 (0 no effect, 100 complete control), read-out: Plant response rating, Chickweed): 70%
pest or weed control at 62 g/ha ([3]; Stellaria media, post-emergence, Postemergence, 62 g ai/ha, scale 0 to 100 (0 no effect, 100 complete control), read-out: Plant response rating, Chickweed): 80%
pest or weed control at 1000 g/ha ([4]; Setaria faberi, post-emergence, 240 h, 1000 g ai/ha, 0 to 100 scale, 0 no effect, 100 complete control, read-out: Plant response rating Foxtail, Giant): 100%
Velvetleaf plant response rating [5, 13]: 65
pest or weed control at 16 g/ha ([5]; Abutilon theophrasti, post-emergence, 16 g ai/ha, postemergence, 0 is no effect, 100 is complete control, read-out: Plant response rating (0 to 100), Velvetleaf): 45%
pest or weed control at 125 g/ha ([5]; Abutilon theophrasti, post-emergence, 125 g ai/ha, postemergence, visual rating, scale 0 to 100 (0 no effect, 100 complete control), read-out: Plant response rating, Velvetleaf): 90%
pest or weed control at 62 g/ha ([5]; Abutilon theophrasti, post-emergence, Postemergence, 62 g ai/ha, scale 0 to 100 (0 no effect, 100 complete control), read-out: Plant response rating, Velvetleaf): 80%
plant injury at 1000 g/ha ([6]; Zea mays, post-emergence, 240 h, 1000 g ai/ha, 0 to 100 scale, 0 no effect, 100 complete control, read-out: Plant response rating Corn): 100%
Pigweed plant response rating [7, 13]: 75
pest or weed control at 16 g/ha ([7]; Amaranthus retroflexus, post-emergence, 16 g ai/ha, postemergence, 0 is no effect, 100 is complete control, read-out: Plant response rating (0 to 100), Pigweed): 80%
pest or weed control at 125 g/ha ([7]; Amaranthus retroflexus, post-emergence, 125 g ai/ha, postemergence, visual rating, scale 0 to 100 (0 no effect, 100 complete control), read-out: Plant response rating, Pigweed): 85%
pest or weed control at 62 g/ha ([7]; Amaranthus retroflexus, post-emergence, Postemergence, 62 g ai/ha, scale 0 to 100 (0 no effect, 100 complete control), read-out: Plant response rating, Pigweed): 75%
Plant response rating, Blackgrass ([8]; 1000 g ai/ha): 100
pest or weed control at 16 g/ha ([9]; Bassia scoparia, post-emergence, 16 g ai/ha, postemergence, 0 is no effect, 100 is complete control, read-out: Plant response rating (0 to 100), Kochia): 85%
pest or weed control at 31 g/ha ([9]; Bassia scoparia, post-emergence, 31 g ai/ha, postemergence, visual rating, scale 0 to 100 (0 no effect, 100 complete control), 13 to 15 days, read-out: Kochia plant response rating): 90%
pest or weed control at 125 g/ha ([9]; Bassia scoparia, post-emergence, 125 g ai/ha, postemergence, visual rating, scale 0 to 100 (0 no effect, 100 complete control), read-out: Plant response rating, Kochia): 100%
pest or weed control at 62 g/ha ([9]; Bassia scoparia, post-emergence, Postemergence, 62 g ai/ha, scale 0 to 100 (0 no effect, 100 complete control), read-out: Plant response rating, Kochia): 98%
Ryegrass, Italian plant response rating [10, 13]: 0
pest or weed control at 16 g/ha ([10]; Lolium multiflorum, post-emergence, 16 g ai/ha, postemergence, 0 is no effect, 100 is complete control, read-out: Plant response rating (0 to 100), Ryegrass, Italian): 0%
pest or weed control at 125 g/ha ([10]; Lolium multiflorum, post-emergence, 125 g ai/ha, postemergence, visual rating, scale 0 to 100 (0 no effect, 100 complete control), read-out: Plant response rating, Ryegrass, Italian): 5%
pest or weed control at 62 g/ha ([10]; Lolium multiflorum, post-emergence, Postemergence, 62 g ai/ha, scale 0 to 100 (0 no effect, 100 complete control), read-out: Plant response rating, Ryegrass, Italian): 0%
Plant response rating, Galium ([11]; 1000 g ai/ha): 100
Ragweed plant response rating [12]: 100

FCc1cccc(Oc2ncc(Cl)cn2)c1-n1cc(I)cn1 [Compound 245]
Plant response rating, Ryegrass, Italian ([1]; 31 g ai/ha): 0
Plant response rating, Ryegrass, Italian ([1]; 125 g ai/ha): 20
Plant response rating, Ryegrass, Italian [2, 14]: 0
Ryegrass, Italian plant response rating (0 to 100 scale) ([2]; 125 g ai/ha): 0
Plant response rating (0 to 100), Chickweed [3, 15]: 5
Chickweed plant response rating [3, 16]: 60
Plant response rating, Chickweed [3, 17]: 100
Plant response rating, Chickweed [3, 18]: 80
Plant response rating, Foxtail, Giant [4, 19]: 0
Plant response rating, Foxtail, Giant [4, 20]: 80
Plant response rating (0 to 100), Velvetleaf [5, 15]: 5
Velvetleaf plant response rating [5, 13]: 10
Plant response rating, Velvetleaf [5, 17]: 55
Plant response rating, Velvetleaf [5, 18]: 35
Plant response rating, Corn [6, 19]: 20
Plant response rating, Corn [6, 20]: 40
Plant response rating (0 to 100), Pigweed [7, 15]: 40
Pigweed plant response rating [7, 13]: 55
Plant response rating, Pigweed [7, 17]: 85
Plant response rating, Pigweed [7, 18]: 75
Plant response rating, Blackgrass ([8]; 31 g ai/ha): 30
Plant response rating, Blackgrass ([8]; 125 g ai/ha): 70
Plant response rating (0 to 100), Kochia [9, 15]: 45
Kochia plant response rating [9, 16]: 75
Plant response rating, Kochia [9, 17]: 98
Plant response rating, Kochia [9, 18]: 90
Plant response rating (0 to 100), Ryegrass, Italian [10, 15]: 0
Ryegrass, Italian plant response rating [10, 13]: 0
Plant response rating, Ryegrass, Italian [10, 17]: 5
Plant response rating, Ryegrass, Italian [10, 18]: 0
Plant response rating, Galium ([11]; 31 g ai/ha): 100
Plant response rating, Galium ([11]; 125 g ai/ha): 100
Plant response rating, Ragweed [12, 14]: 0
Ragweed plant response rating (0 to 100 scale) ([12]; 125 g ai/ha): 0

FCc1cn(-c2ccccc2Oc2ncc(Cl)cn2)nn1 [Compound 123]
Plant response rating, Ryegrass, Italian ([1]; 1000 g ai/ha): 90
Ryegrass, Italian plant response rating [2]: 70
Plant response rating (0 to 100), Chickweed [3, 15]: 5
Plant response rating, Chickweed [3, 17]: 60
Plant response rating, Chickweed [3, 21]: 50
Plant response rating, Foxtail, Giant [4, 22]: 90
Plant response rating (0 to 100), Velvetleaf [5, 15]: 60
Plant response rating, Velvetleaf [5, 17]: 100
Plant response rating, Velvetleaf [5, 21]: 80
Plant response rating, Corn [6, 22]: 70
Plant response rating (0 to 100), Pigweed [7, 15]: 70
Plant response rating, Pigweed [7, 17]: 85
Plant response rating, Pigweed [7, 21]: 85
Plant response rating, Blackgrass ([8]; 1000 g ai/ha): 90
Plant response rating (0 to 100), Kochia [9, 15]: 50
Plant response rating, Kochia [9, 17]: 85
Plant response rating, Kochia [9, 21]: 70
Plant response rating (0 to 100), Ryegrass, Italian [10, 15]: 0
Plant response rating, Ryegrass, Italian [10, 17]: 0
Plant response rating, Ryegrass, Italian [10, 21]: 0
Plant response rating, Galium ([11]; 1000 g ai/ha): 100
Ragweed plant response rating [12]: 90

FCc1cccc(Oc2ncc(F)cn2)c1-n1cc(I)cn1 [Compound 152]
Plant response rating, Ryegrass, Italian ([1]; 31 g ai/ha): 0
Ryegrass, Italian plant response rating [1, 23]: 20
Plant response rating, Ryegrass, Italian [2, 14]: 0
Plant response rating, Ryegrass, Italian ([2]; 125 g ai/ha): 0
Plant response rating (0 to 100), Chickweed ([3]; 4 g ai/ha, postemergence, 0 is no effect, 100 is complete control): 5
Plant response rating (0 to 100), Chickweed [3, 24]: 5
Plant response rating (0 to 100), Chickweed [3, 15]: 10
Chickweed plant response rating [3, 16]: 30
Plant response rating, Foxtail, Giant [4, 19]: 0
Foxtail, Giant plant response rating [4, 23]: 40
Plant response rating (0 to 100), Velvetleaf [5, 24]: 5
Plant response rating (0 to 100), Velvetleaf [5, 15]: 20
Velvetleaf plant response rating [5, 13]: 45
Plant response rating, Corn [6, 19]: 20
Corn plant response rating [6, 23]: 30
Plant response rating (0 to 100), Pigweed [7, 24]: 30
Plant response rating (0 to 100), Pigweed [7, 15]: 50
Pigweed plant response rating [7, 13]: 60
Plant response rating, Blackgrass ([8]; 31 g ai/ha): 50
Blackgrass plant response rating [8, 23]: 90
Plant response rating (0 to 100), Kochia [9, 24]: 10
Plant response rating (0 to 100), Kochia [9, 15]: 15
Kochia plant response rating [9, 16]: 40
Plant response rating (0 to 100), Ryegrass, Italian [10, 24]: 0
Plant response rating (0 to 100), Ryegrass, Italian [10, 15]: 0
Ryegrass, Italian plant response rating [10, 13]: 0
Plant response rating, Galium ([11]; 31 g ai/ha): 90
Galium plant response rating [11, 23]: 90
Plant response rating, Ragweed [12, 14]: 20
Plant response rating, Ragweed ([12]; 125 g ai/ha): 40
